In ChEMBL document CHEMBL1201862, “PubChem BioAssay data set” (2004):
Calls of active or inactive are those of the source.

How the values were obtained:
[1] = target: Latent membrane protein 1 (Human herpesvirus 4 (strain B95-8), UniProt P03230); test: LMP1 TES1 pathway selectivity over dsRED control – imaging, HEK293T, dual-color eGFP/dsRED, cherry-picks, selectivity assay for LMP1 NF-kB inhibitor project, dose response (AID 588398); assay type: functional, cell-based
[2] = Vero cell cytotoxicity, dose response, cytotoxicity control for M. tuberculosis growth inhibitor project, Vero cells, purified and synthesized compounds, set 4 (AID 504854); assay type: functional; conditions: Mycobacterium tuberculosis
HEK293 [3] = test: optical interference in Abeta FP readout, dose response, artefact control for IDE activator project, biochemical, fluorescence polarization (AID 588442); assay type: functional, cell-based; conditions: Homo sapiens
Beta-lactamase [4] = target: Beta-lactamase (Salmonella choleraesuis (strain SC-B67), UniProt Q5J463)
Insulin-degrading enzyme [5] = target: T1, Insulin-degrading enzyme (Homo sapiens, UniProt P14735); test: cellular IDE activation of Abeta substrate cleavage – fluorescence polarization, HEK cells, dose response (AID 588439); assay type: functional, cell-based
HEK293 [6] = test: membrane integrity loss in HEK cells – cell-based, fluorescence, cytotoxicity control for IDE activator project, dose response (AID 588440); assay type: functional; conditions: Homo sapiens;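 further: cytotoxicity by LDH release measuring loss of membrane integrity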
Beta-lactamase [7] = target: Beta-lactamase (Pseudomonas aeruginosa, UniProt Q79MP6);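 further: biochemical dose-response test of metallo-beta-lactamase enzyme inhibition, read out by epi-absorbance; purified recombinant IMP-1 metallo-beta-lactamase with nitrocefin as substrate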
Insulin-degrading enzyme [8] = target: T1, Insulin-degrading enzyme; test: recombinant IDE activation, cell-free – biochemical, fluorescence polarization, counter-screen for IDE activator project, dose response (AID 588681)
ORF 73 = ORF 73 (Human herpesvirus 8, UniProt O40947); test: KSHV LANA DNA-binding disruption – biochemical, fluorescence polarization, cherry-picked samples, dose response (AID 504725); design: species or system Human gammaherpesvirus 8;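 further: fluorescence polarization of a labeled DNA duplex reporting LANA DNA binding; potency is for inhibitors that block LANA binding to the DNA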
[9] = target: Protein disulfide-isomerase (Homo sapiens, UniProt P07237); test: inhibition of PDI-driven insulin aggregation – biochemical, turbidity, absorbance, cherry-picked samples, dose response (AID 602350); assay type: functional
[10] = THP-1 cell cytotoxicity, dose response, cytotoxicity control, set 3 (AID 504852); assay type: functional; conditions: Mycobacterium tuberculosis
[11] = THP-1 cell cytotoxicity, cytotoxicity control, set 6 (AID 602433); assay type: functional; conditions: Mycobacterium tuberculosis
[12] = THP-1 cell cytotoxicity, cytotoxicity control, set 4 (AID 504911); assay type: functional; conditions: Mycobacterium tuberculosis
Large T antigen = Large T antigen (Simian virus 40, UniProt P03070); assay type: functional, Betapolyomavirus macacae;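 further: Confirmatory-stage PubChem screen for compounds that inhibit SV40 T antigen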
[13] = target: T2, DNA dC->dU-editing enzyme APOBEC-3G (Homo sapiens, UniProt Q9HC16); test: inhibition of APOBEC3G ssDNA deamination – biochemical, fluorescence, single-stranded DNA substrate, SAR follow-up (AID 602136); assay type: functional; conditions: read-out: IC50_Mean
[14] = target: T2, DNA dC->dU-editing enzyme APOBEC-3G; test: SAR analysis of small molecule inhibitors of APOBEC3G DNA Deaminase via a fluorescence-based single-stranded DNA deaminase assay - Set 2.; assay type: functional; conditions: read-out: IC50_Mean
[15] = target: T3, DNA dC->dU-editing enzyme APOBEC-3A (Homo sapiens, UniProt P31941); test: A3A deaminase inhibition for selectivity – biochemical, dose response (AID 504722); assay type: functional
[16] = target: T2, DNA dC->dU-editing enzyme APOBEC-3G; test: Dose Response confirmation of small molecule APOBEC3G DNA Deaminase Inhibitors via a fluorescence-based single-stranded DNA deaminase assay. [Related pubchem assays (depositor defined):AID493012, AID493028]; assay type: functional
[17] = target: T3, DNA dC->dU-editing enzyme APOBEC-3A; test: SAR analysis of small molecule inhibitors of APOBEC3A DNA Deaminase via a fluorescence-based single-stranded DNA deaminase assay - Set 2.; assay type: functional; conditions: read-out: IC50_Mean
[18] = target: T3, DNA dC->dU-editing enzyme APOBEC-3A; test: SAR analysis of small molecule inhibitors of APOBEC3A DNA Deaminase via a fluorescence-based single-stranded DNA deaminase assay.; assay type: functional; conditions: read-out: IC50_Mean
Aurora kinase B = Aurora kinase B (Homo sapiens, UniProt Q96GD4); assay type: functional
[19] = target: Vascular endothelial growth factor receptor 2 (Homo sapiens, UniProt P35968); assay type: functional
Aurora kinase A = Aurora kinase A (Homo sapiens, UniProt O14965); assay type: functional;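 further: value from the Navigating the Kinome kinase panel profiling, panel entry STK6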
[20] = suppression of NO production in INS-1E cells – cell-based, Griess absorbance, dry powder, set 3, dose response (AID 488870); assay type: functional; conditions: Rattus norvegicus
INS1 [21] = test: INS-1E mitochondrial potential loss inhibitors – cell-based, JC-1 fluorescence, dry powder, set 2, dose response (AID 488867); assay type: functional; conditions: Rattus norvegicus
INS1 [22] = test: beta-cell survival under cytokine stress – INS-1E, ATP luminescence, dry powder, dose response (AID 488844); assay type: functional, cell-based; conditions: Rattus norvegicus
INS1 [23] = test: INS-1E mitochondrial potential rescue under cytokines – cell-based, JC-1 fluorescence ratio, dry powder, dose response (AID 488931); assay type: functional; conditions: Rattus norvegicus

T3 sequence (P31941 whole entry): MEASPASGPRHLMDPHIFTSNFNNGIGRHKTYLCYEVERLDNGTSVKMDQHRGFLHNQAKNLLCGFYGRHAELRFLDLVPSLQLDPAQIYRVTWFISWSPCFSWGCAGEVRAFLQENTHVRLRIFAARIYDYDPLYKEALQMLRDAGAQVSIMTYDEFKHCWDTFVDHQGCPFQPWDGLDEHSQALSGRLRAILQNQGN
T2 sequence (Q9HC16 whole entry): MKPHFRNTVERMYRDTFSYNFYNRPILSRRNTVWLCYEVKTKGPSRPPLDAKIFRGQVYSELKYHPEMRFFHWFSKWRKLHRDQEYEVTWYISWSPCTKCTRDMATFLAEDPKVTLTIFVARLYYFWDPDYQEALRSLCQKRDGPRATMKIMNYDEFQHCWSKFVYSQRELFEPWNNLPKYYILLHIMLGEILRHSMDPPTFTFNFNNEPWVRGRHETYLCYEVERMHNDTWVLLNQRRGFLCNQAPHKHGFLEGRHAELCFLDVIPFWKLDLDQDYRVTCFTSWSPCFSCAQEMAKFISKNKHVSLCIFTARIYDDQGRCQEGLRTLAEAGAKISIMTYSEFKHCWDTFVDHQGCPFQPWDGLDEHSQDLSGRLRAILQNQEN
T1 sequence (P14735 whole entry): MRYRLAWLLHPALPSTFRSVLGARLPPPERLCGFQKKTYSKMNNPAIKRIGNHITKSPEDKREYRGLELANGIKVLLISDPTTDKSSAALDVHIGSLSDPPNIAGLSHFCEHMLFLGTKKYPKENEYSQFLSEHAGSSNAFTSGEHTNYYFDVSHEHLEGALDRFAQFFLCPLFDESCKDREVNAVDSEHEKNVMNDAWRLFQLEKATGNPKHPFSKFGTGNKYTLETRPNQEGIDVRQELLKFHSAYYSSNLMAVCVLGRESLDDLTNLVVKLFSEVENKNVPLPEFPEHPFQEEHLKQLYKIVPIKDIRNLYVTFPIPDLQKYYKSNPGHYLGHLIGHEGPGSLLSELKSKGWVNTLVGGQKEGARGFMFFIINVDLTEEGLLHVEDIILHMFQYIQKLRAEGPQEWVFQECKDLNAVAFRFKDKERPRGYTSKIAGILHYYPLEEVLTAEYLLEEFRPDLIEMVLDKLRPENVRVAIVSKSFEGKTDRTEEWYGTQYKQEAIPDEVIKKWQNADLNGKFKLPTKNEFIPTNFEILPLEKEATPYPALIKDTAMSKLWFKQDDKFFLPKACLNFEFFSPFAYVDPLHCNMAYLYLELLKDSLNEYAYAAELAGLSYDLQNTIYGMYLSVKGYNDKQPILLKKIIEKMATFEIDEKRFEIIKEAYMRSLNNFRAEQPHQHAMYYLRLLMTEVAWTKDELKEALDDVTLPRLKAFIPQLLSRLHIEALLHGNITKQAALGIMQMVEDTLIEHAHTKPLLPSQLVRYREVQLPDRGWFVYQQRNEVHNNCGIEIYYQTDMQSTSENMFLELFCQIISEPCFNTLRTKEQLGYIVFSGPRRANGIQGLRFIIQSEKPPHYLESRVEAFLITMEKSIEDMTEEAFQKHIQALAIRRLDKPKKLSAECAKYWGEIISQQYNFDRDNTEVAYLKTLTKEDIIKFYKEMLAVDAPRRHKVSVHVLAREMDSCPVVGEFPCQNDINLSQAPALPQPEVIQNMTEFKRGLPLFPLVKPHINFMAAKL
Beta-lactamase (Salmonella choleraesuis (strain SC-B67), UniProt Q5J463), sequence (Q5J463 whole entry): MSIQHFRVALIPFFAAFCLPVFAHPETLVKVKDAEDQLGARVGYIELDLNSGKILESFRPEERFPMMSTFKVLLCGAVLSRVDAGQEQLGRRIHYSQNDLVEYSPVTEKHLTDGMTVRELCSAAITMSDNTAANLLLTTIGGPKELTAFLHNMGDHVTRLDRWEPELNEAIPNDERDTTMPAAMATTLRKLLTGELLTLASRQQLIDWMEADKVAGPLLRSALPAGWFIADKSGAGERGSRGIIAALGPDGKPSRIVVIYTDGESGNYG
Aurora kinase A, sequence (O14965 whole entry): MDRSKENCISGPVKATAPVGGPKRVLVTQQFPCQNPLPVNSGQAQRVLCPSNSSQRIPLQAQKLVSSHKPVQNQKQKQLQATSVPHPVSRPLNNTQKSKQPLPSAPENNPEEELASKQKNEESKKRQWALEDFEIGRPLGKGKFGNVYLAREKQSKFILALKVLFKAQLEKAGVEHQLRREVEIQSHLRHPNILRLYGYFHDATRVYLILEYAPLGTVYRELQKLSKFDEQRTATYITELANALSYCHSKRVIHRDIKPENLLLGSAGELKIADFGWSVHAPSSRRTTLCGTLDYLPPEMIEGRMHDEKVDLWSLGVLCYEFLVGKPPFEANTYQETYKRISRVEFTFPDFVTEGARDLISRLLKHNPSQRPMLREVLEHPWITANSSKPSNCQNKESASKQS
Beta-lactamase (Pseudomonas aeruginosa, UniProt Q79MP6), sequence (Q79MP6 whole entry): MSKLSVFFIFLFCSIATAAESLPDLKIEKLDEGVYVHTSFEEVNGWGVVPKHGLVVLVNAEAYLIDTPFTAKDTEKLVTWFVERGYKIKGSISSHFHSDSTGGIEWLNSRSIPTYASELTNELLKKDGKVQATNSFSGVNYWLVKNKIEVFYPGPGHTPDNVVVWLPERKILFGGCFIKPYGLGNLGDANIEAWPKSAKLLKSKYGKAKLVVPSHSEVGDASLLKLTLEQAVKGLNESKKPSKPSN
Vascular endothelial growth factor receptor 2, sequence (P35968 whole entry): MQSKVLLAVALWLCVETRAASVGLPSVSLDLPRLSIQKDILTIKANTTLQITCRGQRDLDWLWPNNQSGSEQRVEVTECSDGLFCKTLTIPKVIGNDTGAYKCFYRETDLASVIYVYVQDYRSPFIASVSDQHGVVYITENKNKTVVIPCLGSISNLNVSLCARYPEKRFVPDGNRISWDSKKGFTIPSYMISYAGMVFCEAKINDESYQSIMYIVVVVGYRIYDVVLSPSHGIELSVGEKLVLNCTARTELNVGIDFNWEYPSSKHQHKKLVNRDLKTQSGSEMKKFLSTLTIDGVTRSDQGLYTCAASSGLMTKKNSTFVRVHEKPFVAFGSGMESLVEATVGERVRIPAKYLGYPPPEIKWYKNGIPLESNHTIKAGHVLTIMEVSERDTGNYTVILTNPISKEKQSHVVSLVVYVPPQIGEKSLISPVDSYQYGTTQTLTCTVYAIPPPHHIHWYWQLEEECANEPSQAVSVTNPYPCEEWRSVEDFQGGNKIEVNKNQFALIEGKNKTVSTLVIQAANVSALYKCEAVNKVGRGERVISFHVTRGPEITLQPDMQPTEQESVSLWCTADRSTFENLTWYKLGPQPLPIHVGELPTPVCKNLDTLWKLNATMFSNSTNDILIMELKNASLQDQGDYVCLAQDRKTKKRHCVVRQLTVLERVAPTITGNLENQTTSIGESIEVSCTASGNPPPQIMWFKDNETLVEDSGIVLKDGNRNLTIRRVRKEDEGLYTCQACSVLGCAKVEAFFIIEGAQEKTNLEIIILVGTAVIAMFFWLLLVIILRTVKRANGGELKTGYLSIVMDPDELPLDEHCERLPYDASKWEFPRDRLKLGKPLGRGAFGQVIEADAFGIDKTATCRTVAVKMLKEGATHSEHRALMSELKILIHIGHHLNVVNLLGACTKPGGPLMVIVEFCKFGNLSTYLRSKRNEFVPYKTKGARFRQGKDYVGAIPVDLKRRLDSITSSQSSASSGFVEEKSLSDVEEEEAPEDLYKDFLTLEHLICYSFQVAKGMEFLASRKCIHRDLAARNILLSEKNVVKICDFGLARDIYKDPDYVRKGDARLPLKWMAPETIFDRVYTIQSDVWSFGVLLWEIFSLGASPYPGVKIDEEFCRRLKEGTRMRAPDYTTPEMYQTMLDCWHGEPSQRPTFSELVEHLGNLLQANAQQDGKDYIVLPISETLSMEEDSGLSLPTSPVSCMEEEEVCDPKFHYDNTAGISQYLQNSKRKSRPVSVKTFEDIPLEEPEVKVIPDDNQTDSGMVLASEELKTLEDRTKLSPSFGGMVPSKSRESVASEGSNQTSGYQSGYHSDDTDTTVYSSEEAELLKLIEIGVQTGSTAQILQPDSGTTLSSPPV
Latent membrane protein 1, sequence (P03230 whole entry): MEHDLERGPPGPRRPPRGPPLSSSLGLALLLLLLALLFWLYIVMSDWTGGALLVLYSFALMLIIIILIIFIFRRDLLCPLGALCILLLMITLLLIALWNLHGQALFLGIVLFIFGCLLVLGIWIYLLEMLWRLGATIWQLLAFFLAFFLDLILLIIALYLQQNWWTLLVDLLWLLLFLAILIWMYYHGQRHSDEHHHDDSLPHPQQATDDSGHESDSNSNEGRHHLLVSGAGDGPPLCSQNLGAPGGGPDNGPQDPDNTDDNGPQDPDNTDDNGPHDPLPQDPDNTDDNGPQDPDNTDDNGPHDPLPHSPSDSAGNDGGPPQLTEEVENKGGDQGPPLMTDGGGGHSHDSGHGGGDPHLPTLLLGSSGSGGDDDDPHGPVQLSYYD
Large T antigen, sequence (P03070 whole entry): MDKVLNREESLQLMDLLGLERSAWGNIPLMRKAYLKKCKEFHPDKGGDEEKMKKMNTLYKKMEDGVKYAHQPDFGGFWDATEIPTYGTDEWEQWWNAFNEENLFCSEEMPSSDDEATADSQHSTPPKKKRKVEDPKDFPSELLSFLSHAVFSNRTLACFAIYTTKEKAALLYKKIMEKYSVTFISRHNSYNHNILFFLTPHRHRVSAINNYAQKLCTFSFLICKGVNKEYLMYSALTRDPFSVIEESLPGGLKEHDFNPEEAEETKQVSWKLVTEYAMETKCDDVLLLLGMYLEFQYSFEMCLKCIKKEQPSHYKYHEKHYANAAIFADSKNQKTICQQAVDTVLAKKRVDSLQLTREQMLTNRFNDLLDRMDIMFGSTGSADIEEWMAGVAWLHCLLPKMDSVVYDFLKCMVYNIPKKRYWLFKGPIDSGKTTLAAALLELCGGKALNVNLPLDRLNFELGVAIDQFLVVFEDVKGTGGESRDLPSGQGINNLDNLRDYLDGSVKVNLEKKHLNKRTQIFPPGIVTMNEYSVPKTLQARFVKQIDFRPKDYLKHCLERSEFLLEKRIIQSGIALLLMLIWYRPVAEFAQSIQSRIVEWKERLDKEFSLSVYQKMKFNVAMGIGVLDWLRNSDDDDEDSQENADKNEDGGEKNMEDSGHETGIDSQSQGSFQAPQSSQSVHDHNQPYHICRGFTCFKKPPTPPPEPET

Q: With `Cc1ccc(/C=N/NC(=O)c2cc(-c3ccccc3)nc3ccccc23)o1` as the molecule, how does the AC50 [1] read?
A: 27.2 µM (active)

Q: For `CCC(Sc1nc2ccccc2c(=O)[nH]1)C(=O)Nc1cccc(OC)c1` (configuration not stated), which CC50 [2] is on record?
A: > 100 µM (active)

Q: With `CCOc1ccc(/C=C2\CCCc3c2nc2ccccc2c3C(=O)O)cc1OC` as the molecule, how does the EC50 (HEK293 [3]) read?
A: 5.38 µM (active)

Q: What about the IC50 (Beta-lactamase [4]) of the same molecule?
A: 10.9 µM (inactive)

Q: And the EC50 (Insulin-degrading enzyme [5])?
A: > 54.7 µM (inactive)

Q: And the IC50 (HEK293 [6])?
A: > 89.2 µM (inactive)

Q: What about the IC50 (Beta-lactamase [7]) of the same molecule?
A: 53.1 µM (inactive)

Q: And the EC50 (Insulin-degrading enzyme [8])?
A: > 54.7 µM (inactive)

Q: What about the AC50 (ORF 73) of the same molecule?
A: 0.908 µM (active)

Q: For `Cc1c(O)ccc2c(CC(=O)N[C@@H](Cc3c[nH]c4ccccc34)C(=O)O)cc(=O)oc12`, which AC50 [9] is on record?
A: 6.76 µM (active)

Q: For `CC(C)CCNC(=O)CSc1nc(O)c2ccccc2n1`, which CC50 [10] is on record?
A: > 100 µM (active)

Q: What about the CC50 [11] of the same molecule?
A: > 100 µM (active)

Q: What about the CC50 [12] of the same molecule?
A: > 100 µM (active)

Q: What does the source list for `CCCCCn1c(=O)c2ccccc2n2c(S)nnc12`?
A: IC50 (Large T antigen): 16.8 µM (active); IC50 [13]: 1.2 µM (active); IC50 [14]: 1.6 µM (active); IC50 [15]: > 100 µM (inactive); IC50 [16]: 1.47 µM (active); IC50 [17]: > 99 µM (inactive); IC50 [18]: > 99 µM (inactive)

Q: What does the source list for `COc1cc(-c2ccc3c(c2)Nc2cc(OCCCCO)c(OC)cc2NC3=O)ccc1O`?
A: Ki (Aurora kinase B): 1.58 µM (active); Ki [19]: 3.98 µM (active); Ki (Aurora kinase A): 1.26 µM (active)

Q: For `C[C@@H]1CN([C@@H](C)CO)C(=O)c2cccc(NC(=O)Nc3cccc4ccccc34)c2O[C@H]1CN(C)S(=O)(=O)c1ccc2c(c1)OCC2`, which AC50 [20] is on record?
A: 25.2 µM (active)

Q: What about the AC50 (INS1 [21]) of the same molecule?
A: 29.8 µM (active)

Q: And the AC50 (INS1 [22])?
A: 67.9 µM (active)

Q: And the AC50 (INS1 [23])?
A: > 195 µM (inactive)
